# Results taken from ChEMBL document CHEMBL4024742, “Pharmaceutical Approaches to Target Antibiotic Resistance Mechanisms” (J Med Chem, 2017).
# What was measured:
# [1] = Inhibition of bacterial AmpC; parameters: species or system Bacteria
# Escherichia coli [2] = experiment: Antimicrobial activity against Escherichia coli; assay type: functional
# [3] = Inhibition of Escherichia coli PBP2
# Pseudomonas aeruginosa = experiment: Antimicrobial activity against Pseudomonas aeruginosa; assay type: functional
# Enterobacter = experiment: Antimicrobial activity against Enterobacter; assay type: functional
# [4] = system: Staphylococcus epidermidis; experiment: Antibacterial activity against planktonic Staphylococcus epidermidis RP62A after 24 hrs by broth microdilution method; assay type: functional
# Staphylococcus aureus [5] = experiment: Antibacterial activity against planktonic Staphylococcus aureus ATCC 43866 after 24 hrs by broth microdilution method; assay type: functional; settings: ATCC 43866, 24 h
# Staphylococcus aureus [6] = experiment: Antibacterial activity against planktonic Staphylococcus aureus ATCC 29213 after 24 hrs by broth microdilution method; assay type: functional; settings: ATCC 29213, 24 h
# [7] = Inhibition of bacterial SHV by measuring nitrocefin degradation; parameters: species or system Bacteria
# [8] = Inhibition of bacterial CMY by measuring nitrocefin degradation; parameters: species or system Bacteria
# [9] = Inhibition of bacterial KPC by measuring nitrocefin degradation; parameters: species or system Bacteria
# [10] = Inhibition of bacterial CTX-M by measuring nitrocefin degradation; parameters: species or system Bacteria
# [11] = Inhibition of bacterial IMP-1 using nitrocefin as substrate; parameters: species or system Bacteria
# Escherichia coli [12] = experiment: Potentiation of cefotaxime induced-antimicrobial activity against Escherichia coli (reference value: 8 to 128 ug/ml); assay type: functional
# [13] = target: T1, Quinolone resistance protein NorA (Staphylococcus aureus) (UniProt P0A0J7); experiment: Inhibition of Staphylococcus aureus 1199B NorA assessed as potentiation of ciprofloxacin-induced antibacterial activity by measuring fold reduction in ciprofloxacin MIC at 12.5 to 25 uM
# T1 sequence (whole entry): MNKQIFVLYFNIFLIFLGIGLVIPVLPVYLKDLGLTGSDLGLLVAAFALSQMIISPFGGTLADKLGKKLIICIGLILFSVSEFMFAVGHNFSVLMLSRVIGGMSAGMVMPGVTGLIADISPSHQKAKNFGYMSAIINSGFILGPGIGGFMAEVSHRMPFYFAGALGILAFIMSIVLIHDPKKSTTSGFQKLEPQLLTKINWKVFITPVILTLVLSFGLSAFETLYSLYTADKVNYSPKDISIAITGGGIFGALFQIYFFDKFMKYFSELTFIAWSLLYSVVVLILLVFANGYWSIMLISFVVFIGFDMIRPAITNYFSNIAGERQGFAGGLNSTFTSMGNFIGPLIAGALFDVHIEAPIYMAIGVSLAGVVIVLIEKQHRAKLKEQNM
# [14] = target: T1, Quinolone resistance protein NorA (Staphylococcus aureus); experiment: Inhibition of Staphylococcus aureus 1199B NorA assessed as potentiation of ciprofloxacin-induced antibacterial activity at 2 ug/ml after 24 hrs
# Staphylococcus aureus [15] = experiment: Antibacterial activity against Staphylococcus aureus ATCC 25923 after 24 hrs by broth microdilution method; assay type: functional; settings: ATCC 25923, 24 h
# [16] = target: T1, Quinolone resistance protein NorA (Staphylococcus aureus); experiment: Inhibition of Staphylococcus aureus 1199B NorA assessed as potentiation of ciprofloxacin-induced antibacterial activity at 0.5 ug/ml after 24 hrs
# Staphylococcus aureus [17] = experiment: Antibacterial activity against Staphylococcus aureus 1199B after 24 hrs by broth microdilution method; assay type: functional
# [18] = Inhibition of Klebsiella pneumoniae NP6 KPC-2 expressed in Escherichia coli DH5alpha
# [19] = Inhibition of Escherichia coli KPC-2 using nitrocefin as substrate preincubated for 5 mins followed by substrate addition
# [20] = Inhibition of Escherichia coli SHV-1 using nitrocefin as substrate preincubated for 5 mins followed by substrate addition
# Escherichia coli [21] = experiment: Antibacterial activity against multi drug-resistant Escherichia coli KG4 after 24 hrs by serial dilution method; assay type: functional; settings: KG4, 24 h
# Escherichia coli [22] = experiment: Antibacterial activity against multi drug-sensitive Escherichia coli MTCC 739 after 24 hrs by serial dilution method; assay type: functional; settings: MTCC 739, 24 h
# Escherichia coli [23] = experiment: Antibacterial activity against multi drug-resistant Escherichia coli EM5 mutant after 24 hrs by serial dilution method; assay type: functional
# Escherichia coli [24] = experiment: Antibacterial activity against multi drug-resistant Escherichia coli EM7 mutant after 24 hrs by serial dilution method; assay type: functional
# Escherichia coli [25] = experiment: Antibacterial activity against multi drug-resistant Escherichia coli KG1 after 24 hrs by serial dilution method; assay type: functional; settings: KG1, 24 h
# Escherichia coli [26] = experiment: Potentiation of tetracycline induced-antimicrobial activity against Escherichia coli assessed as fold reduction in tetracycline MIC at 25 ug/ml after 24 hrs by broth checkerboard method; assay type: functional
# [27] = Inhibition of Mycobacterium tuberculosis Eis
# [28] = system: Staphylococcus epidermidis; experiment: Inhibition of biofilm formation in Staphylococcus epidermidis DSM 3269 at 1.5 ug/ml after 24 hrs by MTT assay; assay type: functional; settings: DSM 3269, 24 h
# Staphylococcus aureus [29] = experiment: Inhibition of biofilm formation in Staphylococcus aureus ATCC 29213 at 1.5 ug/ml after 24 hrs by MTT assay; assay type: functional; settings: ATCC 29213, 24 h
# Staphylococcus aureus [30] = experiment: Inhibition of biofilm formation in Staphylococcus aureus ATCC 25923 at 1.5 ug/ml after 24 hrs by MTT assay; assay type: functional; settings: ATCC 25923, 24 h
# Staphylococcus aureus [31] = experiment: Inhibition of biofilm formation in Staphylococcus aureus ATCC 657 at 1.5 ug/ml after 24 hrs by MTT assay; assay type: functional; settings: ATCC 657, 24 h
# [32] = system: Staphylococcus epidermidis; experiment: Inhibition of biofilm formation in Staphylococcus epidermidis RP62A at 1.5 ug/ml after 24 hrs by MTT assay; assay type: functional
# Staphylococcus aureus [33] = experiment: Inhibition of biofilm formation in Staphylococcus aureus ATCC 702 at 1.5 ug/ml after 24 hrs by MTT assay; assay type: functional; settings: ATCC 702, 24 h
# Staphylococcus aureus [34] = experiment: Inhibition of biofilm formation in Staphylococcus aureus ATCC 43866 at 25 ug/ml after 24 hrs by MTT assay; assay type: functional; settings: ATCC 43866, 24 h
# [35] = target: T2, Quinolone resistance protein NorA (Staphylococcus aureus, UniProt P0A0J7); experiment: Inhibition of Staphylococcus aureus 1199B NorA assessed as reduction in ethidium bromide efflux by fluorescence assay
# T2 sequence (P0A0J7 whole entry): T1 sequence (whole entry)
smiles,measurement,setting,value
O=S(=O)(NCB(O)O)c1ccc(-c2nnn[nH]2)cc1C(F)(F)F,Ki,[1],0.05 nM
O=C(NNC(=O)[C@@H]1CC[C@@H]2CN1C(=O)N2OS(=O)(=O)[O-])C1CNC1.[Na+],MIC,Escherichia coli [2],≤ 2 µg/mL
same,IC50,[3],3600 nM
same,MIC,Pseudomonas aeruginosa,≤ 2 µg/mL
same,MIC,Enterobacter,≤ 2 µg/mL
Cc1nn(C)c([N-]C(=O)c2ccc(Cl)cc2Cl)c1[N+]#N,MIC,[4],1.5 to 12.5 µg/mL
same,MIC,Staphylococcus aureus [5],1.5 to 12.5 µg/mL
same,MIC,Staphylococcus aureus [6],1.5 to 12.5 µg/mL
O=C(O)C[C@@H]1CC[C@H](NC(=O)Cc2cccs2)B(O)O1 [VABORBACTAM],Ki,[7],29 to 99 nM
same,Ki,[8],29 to 99 nM
same,Ki,[9],29 to 99 nM
same,Ki,[10],29 to 99 nM
O=C(O)[C@@H](Cc1ccc2c(c1)OCO2)[C@H](Cc1ccc2c(c1)OCO2)C(=O)O,IC50,[11],2.7 to 9 nM
O=S(=O)(NCB(O)O)c1ccc(-c2nnn[nH]2)nc1,MIC,Escherichia coli [12],0.5 to 1 µg/mL
same,Ki,[1],0.8 nM
COc1cc(CNC(=O)CCCC/C=C/C(C)C)ccc1O,fold change (FC),[13],2 to 4
CC(C)(C)OC(=O)NCC(NC(=O)C(=O)c1c[nH]c2ccccc12)c1c[nH]c2ccccc12 (centres undefined),MIC,[14],2 µg/mL
same,MIC,Staphylococcus aureus [15],> 32 µg/mL
same,MIC,[16],4 µg/mL
same,MIC,Staphylococcus aureus [17],> 32 µg/mL
C[C@]1(Cn2ccnn2)[C@H](C(=O)O)N2C(=O)C[C@H]2S1(=O)=O [TAZOBACTAM],IC50,[18],99000 nM
O=C(O)[C@H](Cc1ccc2c(c1)OCO2)[C@@H](Cc1ccc2c(c1)OCO2)C(=O)O,IC50,[11],210 nM
O=C(Cc1cccs1)NC(Cn1cc(C(=O)O)nn1)B(O)O (centres undefined),IC50,[19],84 nM
same,IC50,[20],130 nM
CCCCCCCCCCCCCC(=O)O[C@H]1CCC(=O)c2ccccc21 [4-O-MYRICITOYL-ALPHA-TETRALONE],MIC,Escherichia coli [21],250 to 1000 µg/mL
same,MIC,Escherichia coli [22],250 to 1000 µg/mL
same,MIC,Escherichia coli [23],250 to 1000 µg/mL
same,MIC,Escherichia coli [24],250 to 1000 µg/mL
same,MIC,Escherichia coli [25],250 to 1000 µg/mL
O=C(O)[C@@H](Cc1ccc2c(c1)OCO2)[C@@H](Cc1ccc2c(c1)OCO2)C(=O)O,IC50,[11],200000 nM
O=C1CC[C@H](O)c2ccccc21 [(-)-4-HYDROXY-ALPHA-TETRALONE],MIC,Escherichia coli [21],250 to 1000 µg/mL
same,MIC,Escherichia coli [22],250 to 1000 µg/mL
same,MIC,Escherichia coli [23],250 to 1000 µg/mL
same,fold change (FC),Escherichia coli [26],4
same,MIC,Escherichia coli [24],250 to 1000 µg/mL
same,MIC,Escherichia coli [25],250 to 1000 µg/mL
O=C(C[n+]1ccn2cccc2c1-c1ccccc1)c1ccccc1,IC50,[27],188 nM
O=C(c1cc(Br)ccc1O)c1[nH]c(Cl)c(Br)c1Br,inhibition at 1.5 µg/mL,[28],> 60%
same,inhibition at 1.5 µg/mL,Staphylococcus aureus [29],> 60%
same,inhibition at 1.5 µg/mL,Staphylococcus aureus [30],> 60%
same,inhibition at 1.5 µg/mL,Staphylococcus aureus [31],> 60%
same,inhibition at 1.5 µg/mL,[32],> 60%
same,inhibition at 1.5 µg/mL,Staphylococcus aureus [33],> 60%
Cc1nn(C)c([N-]C(=O)c2ccc(Cl)cc2)c1[N+]#N,MIC,[4],1.5 to 12.5 µg/mL
same,MIC,Staphylococcus aureus [5],1.5 to 12.5 µg/mL
same,MIC,Staphylococcus aureus [6],1.5 to 12.5 µg/mL
same,inhibition at 25 µg/mL,Staphylococcus aureus [34],69 to 96%
COC(=O)[C@H]1[C@H]2C[C@@H]3c4[nH]c5cc(OC)ccc5c4CCN3C[C@H]2C[C@@H](OC(=O)c2cc(OC)c(OC)c(OC)c2)[C@@H]1OC [RESERPINE],IC50,[35],9000 to 14000 nM
O=C(c1cc(Br)ccc1O)c1[nH]c(Br)c(Br)c1Br,inhibition at 1.5 µg/mL,[28],> 60%
same,inhibition at 1.5 µg/mL,Staphylococcus aureus [29],> 60%
same,inhibition at 1.5 µg/mL,Staphylococcus aureus [30],> 60%
same,inhibition at 1.5 µg/mL,Staphylococcus aureus [31],> 60%
same,inhibition at 1.5 µg/mL,[32],> 60%
same,inhibition at 1.5 µg/mL,Staphylococcus aureus [33],> 60%
